These results are taken from patent US20090239839A1, “RECEPTOR ANTAGONIST” (TAKEDA PHARMACEUTICAL COMPANY LIMITED, priority 2003, published 2009).

One assay addresses T1, human-type OT7T022 (Homo sapiens, UniProt Q9GZQ6).
T1 construct: expressed in transfected cells; host or cells: CHO cells (membrane fraction)
As to the kind of experiment: Binding inhibiting activity using human-type OT7T022-expressing CHO cell. The conditions noted are these: 125I-labeled Y-RFRP-3 100 pM, membrane fraction, room temperature 1.5 hours; read-out: IC50 value (binding inhibiting rate). How it is done:
Assessment of Binding Inhibiting Activity of Test Compound Using Human-Type OT7T022-Expressing CHO Cell
Twenty μm of a peptide (Y-RFRP-3) (sequence: Tyr-Val-Pro-Asn-Leu-Pro-Gln-Arg-Phe-amide) (0.1 mM) in which a Tyr residue had been added to a N-terminus of hRFRP-3-8 (sequence: Val-Pro-Asn-Leu-Pro-Gln-Arg-Phe-amide) having binding inhibiting activity equivalent to that of endogenous human-type RFRP-3 (hRFRP-3-28) for human-type OT7T022-expressing CHO cell and 10 μl of distilled water were mixed, 20 μl of a lactoperoxidase solution (Sigma, prepared using 0.1 M HEPES-NaOH, pH 7.0 in 10 μg/mL), 10 μl of Iodine-125 (Amersham, IMS-30, 74 MBq), and 20 μl of 0.005% hydrogen peroxide (Wako Pure Chemical Industries, Ltd.) were successively mixed therein, the mixture was allowed to stand at room temperature for 10 minutes, 600 μl of 0.1% TFA-water was added, this was separated by reverse phase HPLC, a peak of the labeled form was collected, an equivalent amount of a buffer for a binding test (50 mM TrisHCl (pH 7.5), 0.1% BSA, 5 mM EDTA, 0.5 mM PMSF, 20 μg/mL leupeptin, 0.1 μg/mL pepstatin A, […]) was added, and this was immediately stored on ice. A part thereof was 1/100 diluted, radioactivity was measured with a γ-counter, and the remaining authentic product was distributed, which was stored at −30° C.
To a 96-well microplate were added 1 μg of a membrane fraction, a compound and Y-RFRP-3 labeled with ^125I, which had been diluted with a reaction buffer (50 mM Tris-HCl, 5 mM EDTA, 0.1% BSA, 0.5 mM PMSF, 20 μg/ml leupeptin, 0.1 μg/ml pepstatin A, 4 μg/ml E-64, 10 mM MgCl2, pH 7.5), to 100 pM to react them at room temperature for 1.5 hours. For measuring non-specific binding, non-labeled Y-RFRP-3 was further added to […]. Then, a membrane fraction was transferred to a unifilter GF/C (Perkin Elmer) by filtering the reaction mixture using a cell harvester (Perkin Elmer), and this was washed with a cooled 50 mM Tris buffer (pH 7.5) five times. The filter was dried, Microsinti (Packard) was added to the filter, and radioactivity was measured with Topcount (Packard).
A binding inhibiting rate (IC50 value) of a test compound is shown in [Table 1].

A further assay has as its target T2, rat-type OT7T022 (Rattus norvegicus, UniProt Q9EP86).
T2 construct: expressed in transfected cells; host or cells: CHO cells (membrane fraction)
As to the kind of experiment: Binding inhibiting activity using rat-type OT7T022-expressing CHO cell membrane fraction. The conditions noted are these: iodine-labeled Y-RFRP-3 100 pM, membrane fraction 0.75 μg/well. Here is the method:
Assessment of Binding Inhibiting Activity of Test Compound Using Rat-Type OT7T022-Expressing CHO Cell
A flask in which a rat-type OT7T022-expressing CHO cell had been cultured was washed with 5 mM EDTA/PBS, cells were peeled with 5 mM EDTA/PBS, and cells were recovered by centrifugation, suspended in 25 mL of a buffer for preparing a membrane fraction (50 mM Tris-HCl, pH 7.5, 5 mM EDTA, 0.5 mM PMSF (manufactured by Wako Pure Chemical Industries, Ltd.), […] (manufactured by Peptide Laboratory), 0.1 μg/mL pepstatin A (manufactured by Peptide Laboratory), 4 μg/mL E-64 (manufactured by Peptide Laboratory)), and homogenized on an ice using Polytron (12,000 rpm, 15 seconds×3 times). This was centrifuged in a high speed cooling centrifuge at 4° C. and 1,000 g for 10 minutes, and the supernatant was recovered. 25 mL of a buffer for preparing a membrane fraction was added to precipitates, and the supernatant was recovered by the same procedure. These supernatants were combined, subjected to a cell strainer, dispensed into tubes for a supercentrifuge, and centrifuged at 4° C. and 100,000 g for 1 hour. The pellet was suspended in a small amount of a buffer for preparing a membrane fraction, this was suspended using a Teflon (registered trade mark) homogenizer, a protein amount was measured using a part, and the remaining was dispensed, and stored at −80° C.
Using an assay buffer (50 mM Tris-HCl, pH 7.5, 5 mM EDTA, 0.5 mM PMSF, 20 μg/mL leupeptin, 0.1 μg/mL pepstatin A, 4 μg/mL E-64, 0.1% bovine serum albumin, 10 mM MgCl2), a membrane fraction of a rat-type OT7T022-expressing CHO cell was diluted to the final concentration of 0.75 μg/well, and iodine-labeled Y-RFRP-3 was diluted to the final concentration of 100 pM. Regarding a sample compound, a 10^−2M or 10^−3M stock solution was diluted with an assay buffer so that the final concentration became 10^−5M, 10^−6M, 10^−7M, 10^−8M, 10^−9M, 10^−10M or 10^−11M. For non-specific binding, hRFRP-3-8 having the final concentration of 10^−5M was prepared. Using a polypropylene 96-well plate, a prepared sample solution, a non-specific binding solution, and 50 μl of an assay buffer for total binding were dispensed, 25 μl of an iodine-labeled form diluent was added, the mixture was stirred, 25 μl of a rat-type OT7T022-expressing CHO cell membrane fraction solution was dispensed, and this was stirred, and incubated at room temperature for 1.5 hours. This was transferred to a unifilter (Perkin Elmer) pre-wetted with a washing buffer (50 mM Tris-HCl, pH 7.5) using a harvester for a 96-well plate (Packard), and this was washed with a washing buffer six times, and sufficiently dried. 50 μl of Microscinti O (Packard) was dispensed, radioactivity was measured with Top Count (Packard), and data were analyzed in a triplicate manner. Binding inhibiting activity (IC50 value) of a test compound for rat-type OT7T022 is shown in [Table 3].

For a further assay, the system named is RFRP-1-administered rats. As to the kind of experiment: Inhibitory activity of increase in blood glucose and blood glucagon concentration in RFRP-1-administered rats. Type of assay: in vivo, rat.
The subject of the next assay is ICR mouse. As to the kind of experiment: Analgesic activity in mouse, SP-it test method. Type of assay: in vivo. The conditions noted are these: for Chewing time: counted for 1 minute. Here is the method:
Analgesic Activity in Mouse
Analgesic activity of an RFRP receptor antagonist on provisional pain caused by intrathecal injection (it administration) of substance P (SP) was investigated. In a test, one group (10 animals) of an ICR mouse (♂), 5 week old, was used. A skin of a back of a mouse was excised under ether anesthesia and, after 3 hours or longer recovering time, substance P (SP) was dissolved in a physiological saline, and this was administered by intrathecal injection (between L5-L6) at 10 ng/5 μL/mouse. A physiological saline and the compound of Example 50 were administered by intrathecal injection as a mixed solution with substance P (SP) at a dose of 1, 3 or 10 μg/mouse. From immediately after administration, the number of alternate chewing at a lower abdomen by a mouse was counted for 1 minute, and the time was used as an index for a provisional pain reaction due to substance P (SP).

SMILES strings stand for the structures. Counter-ions that a name gives are not always drawn.

T2 sequence (Q9EP86 whole entry): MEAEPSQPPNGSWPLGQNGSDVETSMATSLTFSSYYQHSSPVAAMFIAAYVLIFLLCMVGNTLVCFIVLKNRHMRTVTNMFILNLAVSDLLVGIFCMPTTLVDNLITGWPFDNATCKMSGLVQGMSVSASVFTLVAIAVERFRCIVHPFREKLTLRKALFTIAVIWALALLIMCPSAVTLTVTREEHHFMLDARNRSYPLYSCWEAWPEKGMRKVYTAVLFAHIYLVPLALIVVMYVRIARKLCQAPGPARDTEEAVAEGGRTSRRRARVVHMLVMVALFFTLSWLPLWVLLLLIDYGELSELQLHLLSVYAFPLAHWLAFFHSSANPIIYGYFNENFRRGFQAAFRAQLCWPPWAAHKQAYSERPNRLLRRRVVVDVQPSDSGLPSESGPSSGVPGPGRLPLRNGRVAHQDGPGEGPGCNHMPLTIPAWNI
T1 sequence (Q9GZQ6 whole entry): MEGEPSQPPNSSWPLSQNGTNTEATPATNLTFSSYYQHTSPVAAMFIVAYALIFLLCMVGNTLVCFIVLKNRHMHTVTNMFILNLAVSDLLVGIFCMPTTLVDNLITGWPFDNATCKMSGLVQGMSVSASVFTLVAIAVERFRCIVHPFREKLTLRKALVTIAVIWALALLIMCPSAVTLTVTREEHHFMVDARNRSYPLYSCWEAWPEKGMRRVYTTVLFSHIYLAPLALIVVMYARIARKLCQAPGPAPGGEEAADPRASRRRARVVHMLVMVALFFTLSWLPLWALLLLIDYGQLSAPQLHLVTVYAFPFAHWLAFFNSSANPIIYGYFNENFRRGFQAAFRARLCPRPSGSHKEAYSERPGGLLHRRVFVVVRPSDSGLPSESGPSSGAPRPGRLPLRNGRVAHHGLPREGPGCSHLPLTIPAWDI

Usually IC50 stands for the point on the concentration scale where inhibition reaches its midpoint. With `CCCNC(=O)C[C@H]1O[C@H](c2cccc(OCCCNCCCc3ccccc3)c2OC)c2cc(Cl)ccc2N(CC(C)(C)C)C1=O` (relative stereo) [Example 46, trans-2-[7-Chloro-1-(2,2-dimethylpropyl)-5-(2-methoxy-3-{3-[(3-phenylpropyl)amino]propoxy}phenyl)-2-oxo-1,2,3,5-tetrahydro-4,1-benzoxazepin-3-yl]-N-propylacetamide hydrochloride], the half-maximal inhibitory concentration (IC50) on human-type OT7T022 and on rat-type OT7T022 was less than 1000 nM each time.

Take `CCCCCNCCCOc1cccc([C@H]2O[C@H](CC(=O)NCc3ccccc3F)C(=O)N(CC(C)(C)C)c3ccc(Cl)cc32)c1OC` (relative stereo) [Example 4, 2-{3,5-trans-7-Chloro-1-(2,2-dimethylpropyl)-5-[2-methoxy-3-(3-(pentylamino)propoxy)phenyl]-2-oxo-1,2,3,5-tetrahydro-4,1-benzoxazepin-3-yl}-N-(2-fluorobenzyl)acetamide hydrochloride]: the IC50 on human-type OT7T022 and on rat-type OT7T022 was less than 1000 nM each time.

With `COc1c(OCCCNCCCc2ccccc2)cccc1[C@H]1O[C@H](CC(=O)N2CCNC(C(=O)O)C2)C(=O)N(CC(C)(C)C)c2ccc(Cl)cc21` (relative stereo) [Example 86, 4-{[3,5-trans-7-Chloro-1-(2,2-dimethylpropyl)-5-(2-methoxy-3-{3-[(3-phenylpropyl)amino]propoxy}phenyl)-2-oxo-1,2,3,5-tetrahydro-4,1-benzoxazepin-3-yl]acetyl}piperazine-2-carboxylic acid dihydrochloride], the IC50 at human-type OT7T022 and on rat-type OT7T022 was less than 1000 nM in each case.

Take `COc1c(OCCCNC/C=C/c2ccccc2)cccc1[C@H]1O[C@H](CC(=O)NCc2ccccc2F)C(=O)N(CC(C)(C)C)c2ccc(Cl)cc21` (relative stereo) [Example 18, trans-2-[7-Chloro-1-(2,2-dimethylpropyl)-5-[2-methoxy-3-(3-{[(2E)-3-phenyl-2-propenyl]amino}propoxy)phenyl]-2-oxo-1,2,3,5-tetrahydro-4,1-benzoxazepin-3-yl]-N-(2-fluorobenzyl)acetamide hydrochloride]: the IC50 on human-type OT7T022 and on rat-type OT7T022 was less than 1000 nM each time.

Consider `COc1c(OCCCNCCCc2ccccc2Cl)cccc1[C@H]1O[C@H](CC(=O)NCc2ccccc2F)C(=O)N(CC(C)(C)C)c2ccc(Cl)cc21` (relative stereo) [Example 14, trans-2-{7-Chloro-5-[3-(3-{[3-(2-chlorophenyl)propyl]amino}propoxy)-2-methoxyphenyl]-1-(2,2-dimethylpropyl)-2-oxo-1,2,3,5-tetrahydro-4,1-benzoxazepin-3-yl}-N-(2-fluorobenzyl)acetamide hydrochloride], for which the concentration for half-maximal inhibition (IC50) on human-type OT7T022 and at rat-type OT7T022 was less than 1000 nM in each case.

For `COc1c(OCCCNCCCc2ccccc2)cccc1[C@H]1O[C@H](CC(=O)N2CCNCC2)C(=O)N(CC(C)(C)C)c2ccc(Cl)cc21.Cl.Cl` (relative stereo) [Example 50, trans-7-Chloro-1-(2,2-dimethylpropyl)-5-(2-methoxy-3-{3-[(3-phenylpropyl)amino]propoxy}phenyl)-3-[2-oxo-2-(1-piperazinyl)ethyl]-1,5-dihydro-4,1-benzoxazepine-2(3H)-one dihydrochloride], the half-inhibitory concentration (IC50) at human-type OT7T022 and at rat-type OT7T022 was less than 1000 nM in each case. For the same compound, the “inhibition of activity of increasing blood glucose concentration due to RFRP-1” value in the assay with RFRP-1-administered rats (5 mg/kg intravenous) is on record as “inhibited significantly (p<0.01, n=4)”. For the same compound, the “inhibition of activity of increasing blood glucagon concentration due to RFRP-1” value was “significantly inhibited” in the assay on RFRP-1-administered rats (5 mg/kg intravenous, 2 minutes after administration of RFRP-1 (p<0.05)) and “significantly inhibited” in the assay with RFRP-1-administered rats (5 mg/kg intravenous, 5 minutes after administration of RFRP-1 (p<0.001)). Further, the “inhibition of increase in blood glucagon concentration due to RFRP-1” value in the assay on RFRP-1-administered rats (0.2, 1 or 5 mg/kg intravenous 5 minutes before RFRP-1) is on record as “inhibits increase in a blood glucagon concentration due to RFRP-1 in a dose dependent manner”. Besides, the “inhibition of increase in blood glucose concentration due to RFRP-1” value in the assay with RFRP-1-administered rats (0.2, 1 or 5 mg/kg intravenous 5 minutes before RFRP-1, vs control group) was “inhibits increase in a blood glucose concentration due to RFRP-1 in a dose dependent manner”. Further, in the assay with ICR mouse (1, 3 or 10 μg/mouse intrathecal), the “analgesic activity (pain reaction due to substance P)” value is recorded as “a pain reaction due to substance P (SP) is inhibited in a dose dependent manner”. The Chewing time in the assay with ICR mouse (dose 1 μg/mouse intrathecal with substance P 10 ng/mouse) is on record as 71.8 ± 5.1; with ICR mouse (dose 3 μg/mouse intrathecal with substance P 10 ng/mouse), 18.6 ± 4.1; in the assay with ICR mouse (dose 10 μg/mouse intrathecal with substance P 10 ng/mouse), 0.0 ± 0.0. Also, the “decrease in the chewing time” value with ICR mouse (dose of 3 and 10 μg/mouse intrathecal) is on record as “significant (p<0.01) decrease in the chewing time”.

Regarding `COc1c(OCCCNCCCc2ccccc2)cccc1[C@H]1O[C@H](CC(=O)N2CCC(O)CC2)C(=O)N(CC(C)(C)C)c2ccc(Cl)cc21` (relative stereo) [Example 85, trans-7-Chloro-1-(2,2-dimethylpropyl)-3-[2-(4-hydroxypiperidin-1-yl)-2-oxoethyl]-5-(2-methoxy-3-{3-[(3-phenylpropyl)amino]propoxy}phenyl)-1,5-dihydro-4,1-benzoxazepine-2(3H)-one hydrochloride], the IC50 at human-type OT7T022 and at rat-type OT7T022 was less than 1000 nM in each case.
